Test results: patent US5486624A (Pacific Corporation, priority 1994, dated 1996)
pIC50: −log10 of the molar value.

How the values were obtained:
[1] = biological target: Tyrosinase; assay: Tyrosinase-inhibiting activity; format: biochemical, mushroom; details: for pIC50: mushroom tyrosinase, tyrosine, pH 6.8, 37° C., 10 minutes, 475 nm, read-out: IC50 (concentration of test compound which inhibits tyrosinase by 50%); for tyrosinase inhibition activity, fold higher than that of kojic acid: relative to kojic acid, in terms of IC50
Protocol: Tyrosinase, which was extracted from mushroom, was purchased from SIGMA. […] Ethanol and water were used to dilute the test compounds. As a control, 0.9 ml of a 1:1 mixture of ethanol and water was used. […] The test tube was quickly cooled in an ice water bath to stop the reaction, and absorbance was measured at 475 nm. […] IC50, i.e., the concentration of test compound which inhibits tyrosinase by 50% was calculated by serial dilution for each test compound.

[2] = DPPH (diphenylpicrylhydrazyl) radical-scavenging test; details: for pIC50: DPPH 100 μM in ethanol, 37° C., 30 minutes, 515 nm, read-out: IC50 (concentration of test compound which scavenges the radical DPPH by 50%)
Protocol: Harmful radical-scavenging activities of the compounds of Examples 1 and 2 were compared with those of conventional anti-oxidants using a DPPH (diphenylpicrylhydrazyl) radical-scavenging test as follows:
DPPH was dissolved into ethanol to a concentration of 100 μM. A series of dilutions of compounds of Examples 1 and 2, vitamin C, vitamin E or hydroquinone were prepared. Ethanol and water were used to dilute the test compounds. As a control, a 1:1 mixture of ethanol and water was used. The series of dilutions of each test compound were mixed with 1,900 μl of DPPH solution and the dilution solvent was added to 2.0 ml. The resulting mixture was reacted in an incubator at 37° C. for 30 minutes. Absorbance was measured at 515 nm. The radical-scavenging activities of the compounds of Examples 1 and 2 and conventional anti-oxidants were calculated by the following equation: [formula]
IC50, i.e., the concentration of test compound which scavenge the radical, DPPH by 50% was calculated by the serial dilution method for each test compound.

[3] = tested on: human skin; assay: human body patch test (skin safety); format: in vivo; details: for number of positive subjects/the number of total subjects: cream with 0.2 wt. % compound, 20 μl plaster, 30 volunteers; for safety to human skin (in words): overall conclusion
Protocol: In order to examine the safety of the compounds of Examples 1 and 2, a human body patch test was carried out as follows:
The brachium of thirty(30) healthy volunteers (15 females and 15 males) was thoroughly washed with 70% ethanol and applied with a plaster containing 20 μl of a conventional creamy preparation incorporating 0.2 wt. % of one of the compounds of Examples 1 and 2. The plaster was thoroughly bonded to the brachium using an adhesive tape. 48 hours later, the tape and chamber were removed, and the adherent site of the arm was wiped with a gauze to remove any remaining preparation. […] 48 hours later, the site was examined again.
The results are shown in terms of the number of positive subjects/the number of total subjects.

[4] = tested on: tyrosinase; details: prior art statement; cited from earlier work

Compound	pIC50 [1]	tyrosinase inhibition activity, fold higher than that of kojic acid [1] [fold]	radical-scavenging activity (in words) [2]	pIC50 [2]	number of positive subjects/the number of total subjects ([3]; 48 hours later)	number of positive subjects/the number of total subjects ([3]; 96 hours later)	skin response in patch test (in words) ([3]; after 48 hours)	skin response in patch test (in words) ([3]; after 96 hours)	safety to human skin (in words) [3]	inhibition of tyrosinase (in words) [4]
O=C(C=Cc1ccc(O)c(O)c1)OCc1cc(=O)c(O)co1 [Example 1, 2-(3,4-dihydroxycinnamoyl)oxymethyl-5-hydroxy-4H-pyran-4-one]	5.40	20	strong activity as a radical scavenger	4.91	1/30	0/30	weak positive response	disappeared	safe to human skin	
COc1cc(C=CC(=O)OCc2cc(=O)c(O)co2)ccc1O [Example 2, 2-(4-hydroxy-3-methoxycinnamoyl) oxymethyl-5-hydroxy-4H-pyran-4-one]	5.40	20		4.15	1/30	0/30	weak positive response	disappeared	safe to human skin	
Oc1ccc(O)cc1 [Hydroquinone, hydroquinone, reference compound]				4.60						
O=c1cc(CO)occ1O [Kojic acid]										strongly inhibits the action of tyrosinase
O=C1O[C@H]([C@@H](O)CO)C(O)=C1O [Vitamin C, reference compound]				4.53						
tocopherol [Vitamin E, reference compound]				4.46						
